Test results taken from US9763996B2, “Polymyxin derivative and uses thereof” (Northern Antibiotics Ltd., priority 2015, dated 2017).
Converted amounts (≈) assume the structure as drawn. “And” between values parts separate entries of the source, which are not always exact repeats. Identical values can stand only once. “Also recorded” adds a separate entry of the source. Like-named read-outs stand apart in the source and are kept apart here. Where a SMILES comes first, the peptide text is derived from it. Bridges are numbered along the chain shown (N, C = ends). [ ]: non-standard residue; d: D form. The star is where a group is joined. Octanoyl = CCCCCCCC(=O)*; Dab = NCC[C@H](N)C(=O)O; Abu = CC[C@H](N)C(=O)O

Key:
[1] = test system: E. coli JMI 3328; settings: for MIC: E. coli JMI 3328
[2] = test system: K. pneumoniae JMI 27068
[3] = test system: P. aeruginosa JMI 7445; settings: P. aeruginosa JMI 7445
[4] = test system: K. pneumoniae JMI 27072; settings: K. pneumoniae JMI 27072
[5] = test system: K. pneumoniae ATCC 43816; settings: K. pneumoniae ATCC 43816
[6] = test system: A. baumannii ATCC 19606; settings: A. baumannii ATCC 19606
[7] = test system: A. baumannii CMI 417
[8] = Toxicokinetics (plasma and urine) in cynomolgus monkeys; settings: for AUC: plasma
Experimental: (§1) For seven days, the animals were dosed by intravenous (IV) infusion three times daily (TID) at a dose volume of 10 mL/kg for 1 hour (±10 minutes), 8±0.5 hours apart. The day of initial dose administration was designated study Day 1, with subsequent days consecutively numbered. Days prior to the initial dose administration were consecutively numbered with the final day of acclimation referenced as Day −1.
(§2) The following parameters were evaluated at designed intervals: clinical observations, body weights, clinical pathology (hematology, coagulation, serum chemistry, urinalysis including urine sediments and urine chemistry), toxicokinetics (plasma and urine) and anatomic pathology (kidney). In cases of animals sacrificed on an unscheduled basis, samples were taken on the day of the sacrifice.
Plasma and urine concentrations for toxicokinetic (TK) studies were determined by using liquid chromatograph interfaced with a mass spectrometer after precipitation of proteins. A sample (100 μL) was mixed with internal standard solution in water:formic acid (99:1 v/v; […]). Then, 600 μL of 100:1 acetonitrile:formic acid was added. The plates were centrifuged at 3200 rpm for 5 minutes. Using a Tomtec Quadra96, a 450 μL aliquot was transferred to a new 96-well plate and dried under nitrogen at 40° C. Then, 200 μL of water:methanol:formic acid (85:15:1 1 v/v) was added and the plate sealed for LC-MS/MS injection. LC-MS system consisted of Waters Acquity liquid chromatograph interfaced with a Thermo Scientific TSQ Quantitative triple quadrupole MS with ionization in the positive ion mode. Each sample (20 μL) was injected onto a Waters Acquity BEH Shield RP18 column (2.1×50 mm; 1.7 μm) equilibrated at 50° C. Mobile Phase A was 85:15:1 v/v water:methanol:formic acid. Mobile Phase B was 50:50:1 v/v acetonitrile:methanol:formic acid.
Peak area ratios from the calibration standard responses were regressed using a (1/concentration^2) linear fit for polymyxin B using colistin as the internal standard. For NAB739 and NAB815, peak areas from the calibration standard responses were regressed using a (1/concentration^2) quadratic fit (without the use of an internal standard).
The regression models were chosen based upon the behavior of the analytes across the concentration range used during development.
Toxicokinetic analysis was performed by using WinNonlin Phoenix version 6.3 software (Pharsight, Cary, N.C.). For plasma TK, noncompartmental IV infusion model was used.
In the cynomolgus monkey studies described in Example 3, where the peptides were administered as a 1-hour intravenous infusion three times daily, plasma and urine levels of the peptides were determined.

[9] = 7-day IV infusion toxicity (nephrotoxicity) study in cynomolgus monkeys; settings: for unscheduled necropsy / euthanized due to severe nephrotoxic effects: 3 animals per group
Experimental: In vivo toxicity and toxicokinetic studies were performed by using cynomolgus monkeys. The laboratory that performed the animal studies is accredited by the Association for Assessment and Accreditation of Laboratory Animal Care (AAALAC), has an Animal Welfare Assurance issued by the Office of Laboratory Animal Welfare (OLAW), is registered with the United States Department of Agriculture (USDA), and has an Institutional Animal Care and Use Committee (IACUC) responsible for compliance with applicable laws and regulations concerning the humane care and use of laboratory animals.
Naïve female cynomolgus monkeys were acclimatized to study room for 28 days during which each animal was implanted with a permanent indwelling femoral catheter to permit continuous intravenous infusions. The animals were allowed surgical recovery period of at least 2 weeks before initiating dosing.
Polymyxin B sulfate was from Sigma-Aldrich (catalogue number P0972, lot number BCBF8382V). On each day of use, appropriate quantities of NAB739, NAB815 or polymyxin B were weighed and dissolved in appropriate volumes of sterile saline to prepare a stock solution for each test article and positive control. A correction factor was used in the stock solution preparation to account for both the purity and sulfate content in each test article. Accordingly, the dose (such as 36 mg/kg/d) refers to the dose of the pure peptide as its free base form, not as its sulfate salt.
The doses were the following: polymyxin B 18 mg/kg/d (Group 1), polymyxin B 24 mg/kg/d (Group 2), NAB739 24 mg/kg/d (Group 3), NAB739 36 mg/kg/d (Group 4), NAB815 24 mg/kg/d (Group 5), NAB815 36 mg/kg/d (Group 6). Three animals were included in each study groups.
as §1, §2
On the day of necropsy, animals were sedated with ketamine, weighed, and anesthetized with an intravenous injection of a commercial pentobarbital and phenytoin solution, followed by exsanguinations.
At necropsy, gross observations and organ weights were recorded, and specific tissues were collected. Histopathology was conducted on sections of kidney stained with hematoxylin and eosin (H&E).
The figures also show Urine N-acetyl-β-D-glucosaminidase/urine creatinine ratio (U-NAG/Crea; FIG. 3) and Urine Gamma Glutamyltransferase/urine creatinine ratio (U-GGT/Crea; FIG. 4), both urine biomarkers for kidney injury, in those animals. S-Crea and U-Crea were measured by using an Olympus Analyzer (OA) and the modified Jaffe method, S-BUN by using OA and urease/L-glutamate dehydrogenase. U-NAG was measured by using OA/enzymatic, and U-GGT by using OA and glutamyl-carboxy-p-nitroanilide IFCC.
The presence of the following nephro-pathological parameters was recorded in each animal: tubular basophilia (re-generation), tubular degeneration/necrosis, infiltration (by mononuclear and/or mixed inflammatory cells), tubular dilatation, and tubular casts.

[10] = in combination with rifampin 0.25 μg/mL
[11] = peptide at 1 μg/mL, E. coli JM13328
[12] = alone, K. pneumoniae JMI 27068 (polymyxin-nonsusceptible)
[13] = in combination with rifampin 0.25 μg/mL, K. pneumoniae JMI 27068
[14] = in combination with rifampin 0.25 μg/mL, A. baumannii CMI 417

Compound: CCCCCCCC(=O)N[C@@H](CCN)C(=O)N[C@H](C(=O)N[C@@H](C(=O)N[C@H]1CCNC(=O)[C@H]([C@@H](C)O)NC(=O)[C@H](CCN)NC(=O)[C@H](CC)NC(=O)[C@H](CC(C)C)NC(=O)[C@@H](Cc2ccccc2)NC(=O)[C@H](CCN)NC1=O)[C@H](C)O)[C@@H](C)O [NAB815, octanoyl-αDab-Thr-DThr-[cyclo-α,γDab-αDab-DPhe-Leu-Abu-αDab-Thr]] (Octanoyl-[Dab]T[dT][Dab][Dab][dF]L[Abu][Dab]T; lactam 4-C)
- MIC ([1]; alone): 4 µg/mL (≈ 3.4 µM)
- MIC [1, 10]: 1 µg/mL
- MIC of rifampin in the presence of the peptide [1, 11]: 0.25 µg/mL
- factor of decrease of the MIC of rifampin [1, 11]: 32
- MIC [2, 12]: 128 µg/mL (≈ 109 µM)
- MIC [2, 13]: 4 µg/mL
- MIC ([3]; alone): 8 µg/mL (≈ 6.81 µM)
- MIC ([4]; alone): 2 to 4 µg/mL
- MIC [5, 10]: 1 µg/mL
- MIC of rifampin in the presence of the peptide ([5]; peptide at 1 μg/mL): 0.25 µg/mL
- factor of decrease of the MIC of rifampin ([5]; peptide at 1 μg/mL): 64
- MIC ([6]; alone): 4 µg/mL (≈ 3.4 µM)
- MIC [6, 10]: 0.5 to 2 µg/mL
- MIC [7, 14]: 2 µg/mL
- AUC ([8]; cynomolgus monkey, in vivo, 36 mg/kg/day, AUCs, dosed at 36 mg/kg/d, day 1): 153 µg·h/mL
- AUC ([8]; cynomolgus monkey, in vivo, iv, 8 mg/kg, AUCs 0-8 h, after infusion of 8 mg/kg, day 1): 102 µg·h/mL
- AUC ([8]; cynomolgus monkey, in vivo, iv, 8 mg/kg, AUCs 0-8 h, after infusion of 8 mg/kg, day 7): 110 µg·h/mL
- AUC ([8]; cynomolgus monkey, in vivo, iv, 36 mg/kg/day, AUCs, dosed at 36 mg/kg/d, day 7): 205 µg·h/mL
- dose excreted ([8]; female, cynomolgus monkey, in vivo, iv, 36 mg/kg/d, urinary recoveries (0-8 h urine collection), 36 mg/kg/d, day 7, each animal): 33.9%
- kidney injury markers (S-BUN, S-Crea, U-NAG/Crea, U-GGT/Crea) ([9]; 24 mg/kg/d IV TID 7 days): None of the parameters was elevated
- kidney injury markers (S-BUN, S-Crea, U-NAG/Crea, U-GGT/Crea) ([9]; 36 mg/kg/d IV TID 7 days): only minor if any elevations in the four parameters
- unscheduled necropsy / euthanized due to severe nephrotoxic effects ([9]; 36 mg/kg/d IV TID 7 days): underwent no prescheduled necropsy
- kidney histopathology findings (grade of nephro-pathological parameters) ([9]; 36 mg/kg/d IV TID, H&E kidney sections, per animal(s)): moderate findings, both in one parameter only; also recorded: no other than minimal or mild findings; also recorded: less severe nephropathic alterations with NAB815

Compound: Polymyxin B
- MIC ([1]; alone): 2 µg/mL
- MIC [1, 10]: 0.5 to 1 µg/mL
- MIC [2, 12]: 64 µg/mL
- MIC [2, 13]: 1 µg/mL
- MIC ([3]; alone): 2 µg/mL
- MIC [3, 10]: 1 µg/mL
- MIC ([4]; alone): 2 µg/mL
- MIC [4, 10]: 1 µg/mL
- MIC ([5]; alone): 2 µg/mL
- MIC [5, 10]: 0.5 to 1 µg/mL
- MIC ([6]; alone): 2 µg/mL
- MIC [6, 10]: 0.5 µg/mL
- MIC ([7]; alone, A. baumannii CMI 417 (polymyxin-nonsusceptible)): 32 µg/mL
- MIC [7, 14]: 1 µg/mL
- 0-8 h recovery in urine (of the dose) ([8]; after infusion of 8 mg/kg, given for each animal, 8 mg/kg): 1% and 2% (2×)
- unscheduled necropsy / euthanized due to severe nephrotoxic effects ([9]; 18 mg/kg/d IV TID 7 days): all the three animals receiving polymyxin B at 18 mg/kg/d had to be euthanized; also recorded: on Day 4 for one animal receiving 18 mg/kg/d; also recorded: on Day 5 for two animals receiving 18 mg/kg/d
- unscheduled necropsy / euthanized due to severe nephrotoxic effects ([9]; 24 mg/kg/d IV TID 7 days): Two animals receiving polymyxin B at 24 mg/kg/d; also recorded: for two animals receiving 24 mg/kg/d
- S-BUN, S-Crea and U-GGT/Crea ([9]; 18 and 24 mg/kg/d IV TID, all the six animals): remarkably increased
- U-NAG/Crea ([9]; 18 and 24 mg/kg/d IV TID, six animals): remarkably increased in five of the animals
